Reference: ChEMBL document CHEMBL5543097, “Synthesis and structure-activity relationships of novel 14-membered 2-fluoro ketolides with structural modification at the C11 position” (Eur J Med Chem, 2024)
≈ marks a conversion by molar mass, not a printed value.

How the values were obtained:
Streptococcus agalactiae [1] = assay: Antibacterial activity against erythromycin-resistant Streptococcus agalactiae 19-8 assessed as inhibition of visible bacterial growth incubated for 18 hrs by broth microdilution method; format: functional
Haemophilus influenzae [2] = assay: Antibacterial activity against Haemophilus influenzae HIN 19-18 assessed as inhibition of bacterial growth incubated for 20 to 24 hrs by CLSI based broth microdilution method; format: functional; conditions: HIN 19-18, time 20-24 hrs
Moraxella catarrhalis [3] = assay: Antibacterial activity against Moraxella catarrhalis BCA 19-5 assessed as inhibition of bacterial growth incubated for 24 hrs by CLSI based broth microdilution method; format: functional; conditions: Moraxella catarrhalis, BCA 19-5, 24 h, read-out: MIC
[4] = tested on: Staphylococcus epidermidis; assay: Antibacterial activity against erythromycin-resistant Staphylococcus epidermidis 19-8 assessed as inhibition of visible bacterial growth incubated for 18 hrs by broth microdilution method; format: functional
[5] = tested on: Staphylococcus epidermidis; assay: Antibacterial activity against erythromycin-resistant Staphylococcus epidermidis 19-6 assessed as inhibition of visible bacterial growth incubated for 18 hrs by broth microdilution method; format: functional
[6] = Cytotoxicity against mouse AML12 cells assessed as reduction in cell viability incubated for 48 hrs by MTT assay; format: toxicity, cell-based
[7] = tested on: Staphylococcus epidermidis; assay: Antibacterial activity against erythromycin-resistant Staphylococcus epidermidis 19-9 assessed as inhibition of visible bacterial growth incubated for 18 hrs by broth microdilution method; format: functional
[8] = tested on: Staphylococcus epidermidis; assay: Antibacterial activity against erythromycin-resistant Staphylococcus epidermidis 19-11 assessed as inhibition of visible bacterial growth incubated for 18 hrs by broth microdilution method; format: functional
[9] = tested on: Staphylococcus epidermidis; assay: Antibacterial activity against erythromycin-resistant Staphylococcus epidermidis 19-5 assessed as inhibition of visible bacterial growth incubated for 18 hrs by broth microdilution method; format: functional
Haemophilus influenzae [10] = assay: Antibacterial activity against Haemophilus influenzae HIN 19-15 assessed as inhibition of bacterial growth incubated for 20 to 24 hrs by CLSI based broth microdilution method; format: functional; conditions: time 20-24 hrs
Streptococcus pneumoniae [11] = assay: Antibacterial activity against erythromycin-resistant Streptococcus pneumoniae SPN19-13 assessed as inhibition of visible bacterial growth incubated for 18 hrs by broth microdilution method; format: functional
[12] = tested on: Staphylococcus epidermidis; assay: Antibacterial activity against erythromycin-resistant Staphylococcus epidermidis 19-4 assessed as inhibition of visible bacterial growth incubated for 18 hrs by broth microdilution method; format: functional
Moraxella catarrhalis [13] = assay: Antibacterial activity against Moraxella catarrhalis BCA 19-31 assessed as inhibition of bacterial growth incubated for 24 hrs by CLSI based broth microdilution method; format: functional; conditions: BCA 19-31, 24 h
Staphylococcus aureus = assay: Antibacterial activity against Staphylococcus aureus ATCC 700699 assessed as inhibition of visible bacterial growth; format: functional
Streptococcus agalactiae [14] = assay: Antibacterial activity against erythromycin-resistant Streptococcus agalactiae 19-9 assessed as inhibition of visible bacterial growth incubated for 18 hrs by broth microdilution method; format: functional
Streptococcus pneumoniae [15] = assay: Antibacterial activity against erythromycin-resistant Streptococcus pneumoniae SPN19-14 assessed as inhibition of visible bacterial growth incubated for 18 hrs by broth microdilution method; format: functional
Streptococcus pyogenes = assay: Antibacterial activity against erythromycin-resistant Streptococcus pyogenes ATCC 19615 assessed as inhibition of visible bacterial growth incubated for 18 hrs by broth microdilution method; format: functional
Moraxella catarrhalis [16] = assay: Antibacterial activity against Moraxella catarrhalis BCA 19-6 assessed as inhibition of bacterial growth incubated for 24 hrs by CLSI based broth microdilution method; format: functional; conditions: Moraxella catarrhalis, BCA 19-6, 24 h, read-out: MIC
Streptococcus pneumoniae [17] = assay: Antibacterial activity against erythromycin-resistant Streptococcus pneumoniae SPN19-8 assessed as inhibition of visible bacterial growth incubated for 18 hrs by broth microdilution method; format: functional
Haemophilus influenzae [18] = assay: Antibacterial activity against Haemophilus influenzae HIN 20-18 assessed as inhibition of bacterial growth incubated for 20 to 24 hrs by CLSI based broth microdilution method; format: functional; conditions: time 20-24 hrs
[19] = tested on: Staphylococcus epidermidis; assay: Potency index, ratio of telithromycin MIC to test compound MIC for antibacterial activity against erythromycin-resistant Staphylococcus epidermidis 19-8 assessed as inhibition of visible bacterial growth incubated for 18 hrs by broth microdilution method; format: functional
[20] = tested on: Staphylococcus epidermidis; assay: Potency index, ratio of telithromycin MIC to test compound MIC for antibacterial activity against erythromycin-resistant Staphylococcus epidermidis 19-11 assessed as inhibition of visible bacterial growth incubated for 18 hrs by broth microdilution method; format: functional
[21] = Metabolic stability in human liver microsome assessed as parent compound remaining in absence of NADPH measured at 60 mins by LC-MS/MS analysis; format: ADME; conditions: liver microsomes, read-out: Stability
[22] = tested on: Staphylococcus epidermidis; assay: Potency index, ratio of telithromycin MIC to test compound MIC for antibacterial activity against erythromycin-resistant Staphylococcus epidermidis 19-6 assessed as inhibition of visible bacterial growth incubated for 18 hrs by broth microdilution method; format: functional
Streptococcus pneumoniae [23] = assay: Potency index, ratio of telithromycin MIC to test compound MIC for antibacterial activity against Streptococcus pneumoniae SPN19-14 assessed as inhibition of visible bacterial growth incubated for 18 hrs by broth microdilution method; format: functional
Streptococcus pneumoniae [24] = assay: Potency index, ratio of telithromycin MIC to test compound MIC for antibacterial activity against Streptococcus pneumoniae SPN19-13 assessed as inhibition of visible bacterial growth incubated for 18 hrs by broth microdilution method; format: functional
[25] = tested on: Staphylococcus epidermidis; assay: Potency index, ratio of telithromycin MIC to test compound MIC for antibacterial activity against erythromycin-resistant Staphylococcus epidermidis 19-4 assessed as inhibition of visible bacterial growth incubated for 18 hrs by broth microdilution method; format: functional
[26] = tested on: Staphylococcus epidermidis; assay: Potency index, ratio of telithromycin MIC to test compound MIC for antibacterial activity against erythromycin-resistant Staphylococcus epidermidis 19-9 assessed as inhibition of visible bacterial growth incubated for 18 hrs by broth microdilution method; format: functional
Streptococcus pneumoniae [27] = assay: Potency index, ratio of telithromycin MIC to test compound MIC for antibacterial activity against Streptococcus pneumoniae SPN19-8 assessed as inhibition of visible bacterial growth incubated for 18 hrs by broth microdilution method; format: functional
[28] = tested on: Staphylococcus epidermidis; assay: Potency index, ratio of telithromycin MIC to test compound MIC for antibacterial activity against erythromycin-resistant Staphylococcus epidermidis 19-5 assessed as inhibition of visible bacterial growth incubated for 18 hrs by broth microdilution method; format: functional
[29] = Metabolic stability in human liver microsome assessed as intrinsic clearance measured at 60 mins by LC-MS/MS analysis; format: ADME; conditions: liver microsomes, read-out: CLH
[30] = Metabolic stability in human liver microsome assessed as parent compound remaining in presence of NADPH measured at 60 mins by LC-MS/MS analysis; format: ADME; conditions: liver microsomes, read-out: Stability
[31] = Metabolic stability in human liver microsome assessed as half life measured at 60 mins by LC-MS/MS analysis; format: ADME; conditions: liver microsomes
Enterococcus faecium = assay: Antibacterial activity against vancomycin-resistant Enterococcus faecium assessed as inhibition of visible bacterial growth; format: functional

| SMILES | MIC (Haemophilus influenzae [2]) [µg/mL] | MIC (Moraxella catarrhalis [3]) [µg/mL] | MIC [4] [µg/mL] | MIC [5] [µg/mL] | CC50 at 48 h [6] [µM] | MIC [7] [µg/mL] | MIC [8] [µg/mL] | MIC [9] [µg/mL] | MIC (Haemophilus influenzae [10]) [µg/mL] | MIC (Streptococcus pneumoniae [11]) [µg/mL] | MIC [12] [µg/mL] | MIC (Moraxella catarrhalis [13]) [µg/mL] | MIC (Staphylococcus aureus) [µg/mL] | MIC (Streptococcus agalactiae [14]) [µg/mL] | MIC (Streptococcus pneumoniae [15]) [µg/mL] | MIC (Streptococcus pyogenes) [µg/mL] | MIC (Moraxella catarrhalis [16]) [µg/mL] | MIC (Streptococcus pneumoniae [17]) [µg/mL] | MIC (Haemophilus influenzae [18]) [µg/mL] | other results |
| --- | --- | --- | --- | --- | --- | --- | --- | --- | --- | --- | --- | --- | --- | --- | --- | --- | --- | --- | --- | --- |
| CC[C@H]1OC(=O)[C@H](C)C(=O)[C@H](C)[C@@H](O[C@@H]2O[C@H](C)C[C@H](N(C)C)[C@H]2O)[C@](C)(OC)C[C@@H](C)C(=O)[C@H](C)[C@H]2N(CCCCn3cnc(-c4cccnc4)c3)C(=O)O[C@]12C [TELITHROMYCIN] | 4 (≈ 4.93 µM) | 0.25 (≈ 0.308 µM) | > 64 | 64 (≈ 78.8 µM) | > 100 | 0.5 (≈ 0.616 µM) | 0.25 (≈ 0.308 µM) | 0.25 (≈ 0.308 µM) | 4 (≈ 4.93 µM) | 0.25 (≈ 0.308 µM) | > 64 | 0.25 (≈ 0.308 µM) | 16 (≈ 19.7 µM) | 0.125 (≈ 0.154 µM) | 0.25 (≈ 0.308 µM) | < 0.03 | 0.25 (≈ 0.308 µM) | 0.5 (≈ 0.616 µM) | – | MIC (Streptococcus agalactiae [1]): < 0.03 µg/mL |
| CCOc1ccccc1NC(=O)OCCCN1C(=O)O[C@]2(C)[C@@H](CC)OC(=O)[C@@](C)(F)C(=O)[C@H](C)[C@@H](O[C@@H]3O[C@H](C)C[C@H](N(C)C)[C@H]3O)[C@](C)(OC)C[C@@H](C)C(=O)[C@H](C)[C@@H]12 | 2 (≈ 2.35 µM) | 0.125 (≈ 0.147 µM) | 0.06 (≈ 0.0704 µM) | 0.125 (≈ 0.147 µM) | > 100 | 0.5 (≈ 0.587 µM) | 0.16 (≈ 0.188 µM) | < 0.03 | 4 (≈ 4.69 µM) | 0.06 (≈ 0.0704 µM) | 0.06 (≈ 0.0704 µM) | 0.03 (≈ 0.0352 µM) | 16 (≈ 18.8 µM) | 0.25 (≈ 0.293 µM) | 0.06 (≈ 0.0704 µM) | < 0.03 | 0.125 (≈ 0.147 µM) | 0.125 (≈ 0.147 µM) | 8 (≈ 9.39 µM) | – |
| CC[C@H]1OC(=O)[C@@](C)(F)C(=O)[C@H](C)[C@@H](O[C@@H]2O[C@H](C)C[C@H](N(C)C)[C@H]2O)[C@](C)(OC)C[C@@H](C)C(=O)[C@H](C)[C@H]2N(CCCOC(=O)Nc3ccc4c(c3)CCO4)C(=O)O[C@]12C | 2 (≈ 2.35 µM) | 0.06 (≈ 0.0706 µM) | 0.03 (≈ 0.0353 µM) | 0.06 (≈ 0.0706 µM) | > 100 | 0.06 (≈ 0.0706 µM) | < 0.03 | < 0.03 | 8 (≈ 9.41 µM) | 0.6 (≈ 0.706 µM) | 0.03 (≈ 0.0353 µM) | 0.06 (≈ 0.0706 µM) | – | 2 (≈ 2.35 µM) | 0.06 (≈ 0.0706 µM) | < 0.03 | 0.125 (≈ 0.147 µM) | 0.06 (≈ 0.0706 µM) | 8 (≈ 9.41 µM) | Ratio [19]: 4; Ratio [20]: 4; remaining at 1 h [21]: 89.4%; Ratio [22]: 4; Ratio (Streptococcus pneumoniae [23]): <4; Ratio (Streptococcus pneumoniae [24]): <4; Ratio [25]: 4; Ratio [26]: 4; Ratio (Streptococcus pneumoniae [27]): <4; Ratio [28]: 4; microsomal CLint [29]: 341 µL/min/mg; remaining at 1 h [30]: 0.3%; half-life [31]: 2 min |
| CC[C@H]1OC(=O)[C@@](C)(F)C(=O)[C@H](C)[C@@H](O[C@@H]2O[C@H](C)C[C@H](N(C)C)[C@H]2O)[C@](C)(OC)C[C@@H](C)C(=O)[C@H](C)[C@H]2N(CCCOC(=O)Nc3ccc(C(F)(F)F)cc3)C(=O)O[C@]12C | – | 0.125 (≈ 0.143 µM) | 0.06 (≈ 0.0685 µM) | 0.125 (≈ 0.143 µM) | 19.6 | 0.25 (≈ 0.285 µM) | < 0.03 | < 0.03 | 4 (≈ 4.57 µM) | 0.125 (≈ 0.143 µM) | 0.03 (≈ 0.0342 µM) | 0.06 (≈ 0.0685 µM) | 16 (≈ 18.3 µM) | 1 (≈ 1.14 µM) | 0.125 (≈ 0.143 µM) | < 0.03 | 0.125 (≈ 0.143 µM) | 0.125 (≈ 0.143 µM) | – | MIC (Enterococcus faecium): 16 µg/mL (≈ 18.3 µM) |
